According to paper doi:10.1101/2021.10.07.463234v2 (biorxiv, 2021):
Where a name gives a salt, the structure may show the parent alone.

The compounds below were run against SARS-CoV-2 Mac1 (Severe acute respiratory syndrome coronavirus 2, UniProt P0DTD1) (assay: biochemical). Settings: 100 µM; inhibitor.

Going from C[C@@H]1C[C@H]2[C@@H]3CCC4=CC(=O)C=C[C@]4(C)[C@@]3(F)[C@@H](O)C[C@]2(C)[C@@]1(O)C(=O)CO [Dexamethasone (DHAP)] to CC(C)(C)NC(=O)N[C@H](C(=O)N1C[C@H]2[C@@H]([C@H]1C(=O)NC(CC1CCC1)C(=O)C(N)=O)C2(C)C)C(C)(C)C (stereo partly drawn) [Boceprevir], the “%inhibition” value rises from 0% to 2.103%.

First: COc1ccnc(C[S+]([O-])c2nc3cc(OC(F)F)ccc3[nH]2)c1OC (stereo not drawn) [Pantoprazole sodium]
Second: COc1cc(CNC(=O)CCCC/C=C/C(C)C)ccc1O [Capsaicin(Vanilloid)]
The “%inhibition” value of the first is lower: 0% for the first, 5.806% for the second.

First: CS(=O)(=O)CCNCc1ccc(-c2ccc3ncnc(Nc4ccc(OCc5cccc(F)c5)c(Cl)c4)c3c2)o1 [Lapatinib ditosylate monohydrate]
Second: CCOC(=O)Nc1ccc(NCc2ccc(F)cc2)cc1N [Retigabine 2HCl]
The “%inhibition” value of the first is higher: 13.25% for the first, 8.664% for the second.

First: Nc1ccncc1 [4-Aminopyridine]
Second: Nc1c2c(nc3ccccc13)CCCC2 [Tacrine hydrochloride hydrate]
The “%inhibition” value of the first is lower: 5.817% for the first, 12.09% for the second.

Compared with CCCN[C@H]1CCc2nc(N)sc2C1 [Pramipexole], Cc1ccc(Sc2ccccc2N2CCNCC2)c(C)c1 [Vortioxetine] is higher in “%inhibition” value: 0% for the first, 4.926% for the second.

First: CN(C/C=C/C#CC(C)(C)C)Cc1cccc2ccccc12 [Terbinafine HCl]
Second: CN(C)CC/C=C1/c2ccccc2Sc2ccc(Cl)cc21 [Chlorprothixene]
The “%inhibition” value of the first is lower: 13.33% for the first, 13.67% for the second.

First: CC(=O)Oc1ccccc1C(=O)O [Aspirin]
Second: OC[C@@H](O)[C@@H](O[C@@H]1O[C@H](CO)[C@H](O)[C@H](O)[C@H]1O)[C@H](O)[C@@H](O)CO [Lactitol monohydrate]
The “%inhibition” value of the first is higher: 26.28% for the first, 1.512% for the second.

Same assay, conditions: read-out: %inhibition

CC(OC(=O)OC1CCCCC1)OC(=O)C1=C(CSc2nnnn2CCN(C)C)CS[C@@H]2[C@H](NC(=O)Cc3csc(N)n3)C(=O)N12 (stereo partly drawn) [Cefotiam Hexetil Hydrochloride] and CO/N=C(\C(=O)N[C@@H]1C(=O)N2C(C(=O)O)=C(CSc3nnnn3C)CS[C@H]12)c1csc(N)n1 [Cefmenoxime hydrochloride] are the same in inhibition at 100 µM: 0% for the first, 0% for the second.

Going from CN(C)c1ccc2nc3ccc(=[N+](C)C)cc-3sc2c1 [Methylene Blue] to CN(C)CC/C=C1/c2ccccc2COc2ccc(CC(=O)O)cc21 [Olopatadine HCl], the inhibition at 100 µM falls from 43.3% to 2.14%.

Going from CCN(CC)CCOC(=O)c1ccc(N)cc1Cl [Chloroprocaine HCl] to CCCCOc1cc(C(=O)OCCN(CC)CC)ccc1N [Oxybuprocaine HCl], the inhibition at 100 µM rises from 0% to 8.43%.

Compared with Nc1ccc(S(N)(=O)=O)cc1 [Sulfanilamide], COc1ccc(NS(=O)(=O)c2ccc(N)cc2)nn1 [Sulfamethoxypyridazine] is lower in inhibition at 100 µM: 19.9% for the first, 4.31% for the second.

Compared with CCOC(=O)[C@H](CCc1ccccc1)N[C@@H](C)C(=O)N1Cc2ccccc2C[C@H]1C(=O)O [Quinapril HCl], CCOC(=O)[C@H](CCc1ccccc1)N[C@@H](C)C(=O)N1[C@H](C(=O)O)C[C@@H]2CCC[C@@H]21 [Ramipril] is lower in inhibition at 100 µM: 25% for the first, 0% for the second.

First: CN[C@@H]1[C@H](O[C@H]2[C@H](O[C@H]3[C@H](O)[C@@H](O)[C@H](N=C(N)N)[C@@H](O)[C@@H]3N=C(N)N)O[C@@H](C)[C@]2(O)CO)O[C@@H](CO)[C@H](O)[C@H]1O [Dihydrostreptomycin sulfate]
Second: CSCCNc1nc(SCCC(F)(F)F)nc2c1ncn2[C@@H]1O[C@H](COP(=O)(O)OP(=O)(O)C(Cl)(Cl)P(=O)(O)O)[C@@H](O)[C@H]1O [Cangrelor Tetrasodium]
The inhibition at 100 µM of the first is higher: 6.08% for the first, 0% for the second.

COC(=O)N[C@H](C(=O)N[C@@H](Cc1ccccc1)[C@@H](O)CN(Cc1ccc(-c2ccccn2)cc1)NC(=O)[C@@H](NC(=O)OC)C(C)(C)C)C(C)(C)C [Atazanavir Sulfate] and CNC(=O)[C@H](Cc1ccccc1)NC(=O)[C@H](CC(C)C)[C@H](CSc1cccs1)C(=O)NO [Batimastat (BB-94)] are the same in inhibition at 100 µM: 0% for the first, 0% for the second.

First: CC[C@H](c1ccc(O)cc1)[C@@H](CC)c1ccc(O)cc1 [Hexestrol]
Second: CC(C(O)c1ccc(O)cc1)N1CCC(Cc2ccccc2)CC1 (stereo not drawn) [Ifenprodil Tartrate]
The inhibition at 100 µM of the first is lower: 0% for the first, 34.6% for the second.

Compared with NCCC[C@H](N)C(=O)O [L-Ornithine], CC(=O)NC(CC(C)C)C(=O)O (stereo not drawn) [Acetylleucine] is higher in inhibition at 100 µM: 0% for the first, 1.78% for the second.

Going from C[C@H](N[C@@H](CCc1ccccc1)C(=O)O)C(=O)N1CCC[C@H]1C(=O)O [Enalaprilat Dihydrate] to C[C@H](CS)C(=O)N1CCC[C@H]1C(=O)O [Captopril], the inhibition at 100 µM falls from 10.6% to 0%.

Compared with Cc1cc(=O)n(-c2ccccc2)n1C [Antipyrine], Cc1c(O)c(=O)ccn1C [Deferiprone] is lower in inhibition at 100 µM: 8.75% for the first, 0% for the second.

Going from Nc1ncnc2nc[nH]c12 [Adenine sulfate] to Cc1ncc(C[n+]2csc(CCO)c2C)c(N)n1 [Thiamine HCl (Vitamin B1)], the inhibition at 100 µM falls from 4.13% to 0%.

Going from CO/N=C(\C(=O)N[C@@H]1C(=O)N2C(C(=O)O)=C(Cn3ccc(=N)n3CCO)CS[C@H]12)c1csc(N)n1 [Cefoselis Sulfate] to COC(=O)C1=C(C)NC(C)=C(C(=O)OC)C1c1ccccc1[N+](=O)[O-] [Nifedipine], the inhibition at 100 µM falls from 22.8% to 16%.

Compared with C[N+](C)(C)CCOC(N)=O [Carbachol], CC(C)NCC(O)COc1ccc(CC(N)=O)cc1 (stereo not drawn) [Atenolol] is lower in inhibition at 100 µM: 3.56% for the first, 0% for the second.

CCNC(=O)CCC/C=C\C[C@@H]1[C@@H](/C=C/[C@@H](O)CCc2ccccc2)[C@H](O)C[C@@H]1O [Bimatoprost] and CC(=O)SCC(Cc1ccccc1)C(=O)NCC(=O)OCc1ccccc1 (stereo not drawn) [Racecadotril] are the same in inhibition at 100 µM: 0% for the first, 0% for the second.

Going from CC(O)(P(=O)(O)O)P(=O)(O)O [Etidronate] to NC(=O)CN1CC(O)CC1=O (stereo not drawn) [Oxiracetam], the inhibition at 100 µM rises from 0% to 21.6%.

CCN(CC)C(=O)[C@]1(c2ccccc2)C[C@@H]1CN (racemic) [Milnacipran HCl] and CCN(CC)C(=O)c1cccnc1 [Nikethamide] are the same in inhibition at 100 µM: 0% for the first, 0% for the second.

Going from C[C@@H]1C[C@H]2[C@@H]3CCC4=CC(=O)C=C[C@]4(C)[C@@]3(Cl)[C@@H](O)C[C@]2(C)[C@@]1(OC(=O)c1ccco1)C(=O)CCl [Mometasone furoate] to CC1(C)O[C@@H]2C[C@H]3[C@@H]4CCC5=CC(=O)C=C[C@]5(C)[C@H]4[C@@H](O)C[C@]3(C)[C@]2(C(=O)CO)O1 [Desonide], the inhibition at 100 µM rises from 7.49% to 17.1%.

Compared with O[C@@H]1CO[C@H]2[C@@H]1OC[C@@H]2O [Isosorbide], CC(=O)[C@H]1CC[C@H]2[C@@H]3CC=C4C[C@@H](O)CC[C@]4(C)[C@H]3CC[C@]12C [Pregnenolone] is lower in inhibition at 100 µM: 17.9% for the first, 14.7% for the second.

Going from C[C@@H]1COC(Nc2ccc3ncnc(Nc4ccc(OCc5nccs5)c(Cl)c4)c3c2)=N1 [Varlitinib] to CCCCOC(=O)c1ccccc1Nc1cccc(C(F)(F)F)c1 [Ufenamate], the inhibition at 100 µM rises from 0% to 7.76%.

Compared with Cc1ccc(/C(=C\CN2CCCC2)c2ccccn2)cc1 [Triprolidine Hydrochloride], Clc1ccc(C(OCCN2CCCCC2)c2ccccc2)cc1 (stereo not drawn) [Cloperastine hydrochloride] is higher in inhibition at 100 µM: 2.14% for the first, 5.64% for the second.

First: CNC(=O)[C@H](Cc1c[nH]c2ccccc12)NC(=O)[C@@H](CC(=O)NO)CC(C)C [Ilomastat (GM6001, Galardin)]
Second: CN(Cc1ccc(C(C)(C)C)cc1)Cc1cccc2ccccc12 [Butenafine HCl]
The inhibition at 100 µM of the first is higher: 21% for the first, 0% for the second.

Going from COc1cc2nc(N(C)CCCNC(=O)C3CCCO3)nc(N)c2cc1OC (stereo not drawn) [Alfuzosin HCl] to CN(C)C(=O)c1cc2cnc(Nc3ccc(N4CCNCC4)cn3)nc2n1C1CCCC1 [Ribociclib (LEE011)], the inhibition at 100 µM rises from 0% to 0.852%.

First: CC1=C(CC(=O)O)c2cc(F)ccc2/C1=C\c1ccc([S+](C)[O-])cc1 (stereo not drawn) [Sulindac]
Second: COc1ccc([C@@H]2Sc3ccccc3N(CCN(C)C)C(=O)[C@@H]2OC(C)=O)cc1 [Diltiazem HCl]
The inhibition at 100 µM of the first is lower: 4.16% for the first, 25.7% for the second.

Compared with CCCOC(C(=O)OC1CCN(C)CC1)(c1ccccc1)c1ccccc1 [Propiverine hydrochloride], OC(CCCN1CCCCC1)(c1ccccc1)c1ccccc1 [Diphenidol HCl] is lower in inhibition at 100 µM: 21.7% for the first, 3% for the second.

Compared with CCCCC(C)(O)C/C=C/[C@H]1[C@H](O)CC(=O)[C@@H]1CCCCCCC(=O)OC (mixture of isomers) [Misoprostol], CCCC(=O)O[C@]1(C(=O)COC(C)=O)CC[C@H]2[C@@H]3C[C@H](F)C4=CC(=O)C=C[C@]4(C)[C@@]3(F)[C@@H](O)C[C@@]21C [Difluprednate] is higher in inhibition at 100 µM: 0% for the first, 22.2% for the second.

Compared with N=C(N)NCCC[C@@H](NC(=O)[C@@H]1CCCN1C(=O)[C@@H]1CSSCCC(=O)N[C@@H](Cc2ccc(O)cc2)C(=O)N[C@@H](Cc2ccccc2)C(=O)N[C@@H](CCC(N)=O)C(=O)N[C@@H](CC(N)=O)C(=O)N1)C(=O)NCC(N)=O [Desmopressin Acetate], NC(=O)C(c1ccccc1)(c1ccccc1)[C@@H]1CCN(CCc2ccc3c(c2)CCO3)C1 [Darifenacin HBr] is lower in inhibition at 100 µM: 8.25% for the first, 0% for the second.

Going from CC[C@]1(O)C[C@@H]2CN(CCc3c([nH]c4ccccc34)[C@@](C(=O)OC)(c3cc4c(cc3OC)N(C)[C@H]3[C@@](O)(C(=O)OC)[C@H](OC(C)=O)[C@]5(CC)C=CCN6CC[C@]43[C@@H]65)C2)C1 [Vinblastine sulfate] to COc1c(C)c2c(c(O)c1C/C=C(\C)CCC(=O)OCCN1CCOCC1)C(=O)OC2 [Mycophenolate Mofetil], the inhibition at 100 µM falls from 1.94% to 0%.

Compared with NC(=O)c1ccc(I)c([N+](=O)[O-])c1 [Iniparib (BSI-201)], Nc1cccc2c1C(=O)N(C1CCC(=O)NC1=O)C2=O (stereo not drawn) [Pomalidomide] is lower in inhibition at 100 µM: 31% for the first, 0% for the second.

Compared with CC(C)(C#N)c1cc(Cn2cncn2)cc(C(C)(C)C#N)c1 [Anastrozole], Cc1cccc(C)c1NC1=NCCCS1 [Xylazine HCl] is higher in inhibition at 100 µM: 10.3% for the first, 25.3% for the second.

Work on CCC1(C)CC(=O)NC(=O)C1 [Bemegride] yielded an inhibition at 100 µM of 0%.
